Experimental data published in patent US7582652B2, “Kinase inhibitors” (Eli Lilly and Company, priority 2004, dated 2009).

Columns and labels:
[1] = tested on: TNF-α; test: Inhibition of TNF-α in vivo (LPS-challenged mice); design: species or system female Balb/c mice; conditions: p.o., LPS 5 mg/kg i.v. after 2 h, serum 1 h after LPS
Description: Compounds are administered p.o. (100, 30, 10 and 3 mg/kg) to female Balb/c mice (5 mice/dose). After 2 h, lipopolysaccharide (LPS, E. coli serotype 0111:B4, 5 mg/kg) is administered i.v. in the tail vein of each mouse. One hour after LPS administration the mice are asphyxiated by CO2 inhalation and bled out via cardiac puncture.
TNF-α/Luminex Detection Assay (Bio-Rad Bio-Plex Kit—Catalog #171-G12221)
Reconstitute the lyophilized premixed TNF-α standard (1 standard tube/two 96-well plates) with 50 μL sterile water (500,000 pg/mL). Gently vortex for 5 seconds, incubate on ice for 30 min, and vortex for 5 seconds before use. Label a set of twelve 1.5 mL tubes with #1-thru #12 and then add the amounts of cell media shown below to the appropriate tubes (standard concentrations are as follows: 50,000; 25,000; 12,500; 6,250; 3,125; 1,562.5; 781.3; 390.6; 195.3; 97.7; 48.8; and 24.4 pg/mL). Vortex the premixed anti-cytokine conjugated beads (25×) vigorously for 30 seconds. Dilute the anti-cytokine conjugated beads to a 1× concentration using 1× Bio-Plex Assay Buffer. […] Read standards and samples on Luminex machine. These intensity readings are then converted to picogram/milliliter units based on a 12-point standard curve created in duplicate using a four-parameter logistic regression method (Bio-Plex Manager 2.0, Bio-Rad), and the IC50 calculated. […]

[2] = tested on: TNF-α synthesis in synovial lavage fluid; test: Effect on intra-articular LPS induced TNF-α; format: in vivo, female Lewis rats
Description: Effect on Intra-articular LPS Induced TNF-α
Intra-articular injection of LPS into rat ankles induces the synthesis of TNF-α, which can be measured in synovial lavage fluid. High levels of TNF-α are detectable within 2 hours. Since the joint is the site where arthritis develops, this model can rapidly determine whether an orally administered compound has an effect on an inflammatory response in the synovium.
Six female Lewis rats (150-200 g) are place in each treatment group. The animals are given vehicle (1% NaCarboxymethylcellulose-0.25% Tween 80) or test compound (1 mg/kg, 3 mg/kg, 10 mg/kg, and 30 mg/kg) orally. One hour later, 10 μl LPS (10 μg) is administered intra-articularly into the right ankle of each rat, while the left ankle receives 10 μL of saline. After two hours, each ankle is lavaged with 100 μL of saline. The lavage is collected and stored at −80° C. • Group#1: Vehicle (1% NaCMC-0.25% Tween 80, 1 mL, PO) • Group#2: Test compound (1 mg/kg, 1 mL, PO) • Group#3: Test compound (3 mg/kg, 1 mL, PO) • Group#4: Test compound (10 mg/kg, 1 mL, PO) • Group#5: Test compound (30 mg/kg, 1 mL, PO)
TNF-α is measured with a commercially available ELISA kit (R&D, RTA00).

- IC50 (suppressed TNF-α in vivo) [1]: < 1 mg/kg
SMILES: CC(C)(C)Cn1c(N)nc2ccc(-c3nc(C(C)(C)C)[nH]c3-c3ccc(F)cc3)nc21.CS(=O)(=O)O.CS(=O)(=O)O [EXAMPLE 104, Crystalline 5-[2-tert-Butyl-5-(4-fluoro-phenyl)-1H-imidazol-4-yl]-3-(2,2-dimethyl-propyl)-3H-imidazo[4,5-b]pyridin-2-ylamine dimethanesulfonate]
- inhibition of TNF-α synthesis (in words) ([2]; oral 1, 3, 10, 30 mg/kg): dose-dependent inhibition
- TMED50 (inhibition of TNF-α synthesis) ([2]; oral, LPS intra-articular 1 h later, ankle lavage after 2 h): 0.54 mg/kg
